According to BindingDB's records for doi:10.1016/j.bmc.2020.115544 (Duquesne University, 2020):

Assays:
[1] = Inhibition of GARFTase in human KB cells expressing RFC/FRalpha/PCFT assessed as reduction in cell growth after 96 hrs by Cell-Titer Blue assay
[2] = Inhibition of GARFTase in human KB cells expressing RFC/FRalpha/PCFT assessed as reduction in cell growth after 96 hrs in presence of folic acid by Cell-Titer Blue assay

SMILES	IC50 [1]	IC50 [2]
Nc1nc2[nH]c(CCNc3ccc(C(=O)N[C@@H](CCC(=O)O)C(=O)O)cc3)cc2c(=O)[nH]1	0.32 nM	666 nM
Nc1nc2[nH]c(CCCNc3ccc(C(=O)N[C@@H](CCC(=O)O)C(=O)O)cc3)cc2c(=O)[nH]1	0.95 nM	> 1000 nM
Nc1nc2[nH]c(CCCOc3ccc(C(=O)N[C@@H](CCC(=O)O)C(=O)O)cc3)cc2c(=O)[nH]1	2.5 nM	> 1000 nM
Nc1nc2[nH]c(CCCN(C=O)c3ccc(C(=O)N[C@@H](CCC(=O)O)C(=O)O)cc3)cc2c(=O)[nH]1	13 nM	> 1000 nM
Nc1nc2[nH]c(CCCN(C(=O)C(F)(F)F)c3ccc(C(=O)N[C@@H](CCC(=O)O)C(=O)O)cc3)cc2c(=O)[nH]1	5.4 nM	> 1000 nM

Continued by falling IC50 [1], values first:

IC50 [1]	IC50 [2]	SMILES
40 nM	> 1000 nM	CC(=O)N(CCCc1cc2c(=O)[nH]c(N)nc2[nH]1)c1ccc(C(=O)N[C@@H](CCC(=O)O)C(=O)O)cc1
0.3 nM	757 nM	Nc1nc2[nH]c(CCCSc3ccc(C(=O)N[C@@H](CCC(=O)O)C(=O)O)cc3)cc2c(=O)[nH]1
